Results taken from patent publication US20060024337A1, “Process for dissolving lipophilic compounds in aqueous solution with amphiphilic block copolymers, and cosmetic composition” (priority 2002, published 2006).
Converted amounts (≈) assume the structure as drawn.

Key:
[1] = Dissolving Parsol 1789 in water with amphiphilic block copolymers (film hydration, centrifugation, HPLC assay of supernatant); type: physicochemical; details: 25 °C, thermodynamic from solid, no polymer ("natural" solubility)
Procedure: (§1) The measurement is performed by UV spectrometry or HPLC on an aqueous solution, prepared beforehand, of from 20 to 80° C. for 2 hours, followed by cooling to 25° C. The assay is performed 24 hours after this preparation on the supernatant obtained after centrifuging the suspension to remove all crystals, or on the pellet in the case of solubilization of oily molecules, the centrifugation resulting in creaming of the portion that is not encapsulated in the micelles.
The supernatant, which should not contain any crystals that may be identified using an optical microscope in polarized light, is taken up and then assayed by HPLC.
(§2) The solubility gain is calculated relative to the “natural” solubility of the lipophilic compound in water.

[2] = Dissolving DHEA in water with amphiphilic block copolymers (film hydration, centrifugation, HPLC assay of supernatant); type: physicochemical; details: 25 °C, thermodynamic from solid, no polymer ("natural" solubility)
Procedure: as §1, §2

Row | SMILES | solubility at 24 h [1] | solubility at 24 h [2]
1 | COc1ccc(C(=O)CC(=O)c2ccc(C(C)(C)C)cc2)cc1 [Parsol 1789, 4-(tert-butyl)-4′-methoxydibenzoylmethane] | 1 µg/mL (≈ 3.22 µM) | 
2 | C[C@]12CC[C@H](O)CC1=CC[C@@H]1[C@@H]2CC[C@]2(C)C(=O)CC[C@@H]12 [DHEA, dehydroepiandrosterone] |  | 1 µg/mL (≈ 3.47 µM)
